# Measured values taken from PubChem BioAssay AID1996.
# Conditions: buffer; pH 7.4; 200.0 µM
row,Structure (SMILES),solubility kinetic
1,CC(CC(=O)O)C(=O)c1ccc(Cl)c([N+](=O)[O-])c1 (stereo not given),> 40.7 µg/mL
2,COc1ccc(CCNC(=S)Nc2ccccc2)cc1,41.1 µg/mL
3,COc1ccc(C(=O)c2sc(Nc3ccccc3)nc2N)cc1OC,0.6 µg/mL
4,COc1ccc(CNC(=O)C(NC(C)=O)C(C)C)cc1OC (stereo not given),> 46.3 µg/mL
5,O=C(NCCCn1ccnc1)c1ccc(Cl)cc1,> 39.6 µg/mL
6,COc1cccc(-c2noc(CCC(=O)NCCc3ccccc3)n2)c1,44.3 µg/mL
7,Cc1ccc(/C=C2\C(=O)NC(=O)N(CC3CCCO3)C2=O)s1 (stereo not given),> 48.1 µg/mL
8,CN(C)c1nc(N(C)C)nc(N2CC(CCl)OC2=N)n1 (stereo not given),> 45 µg/mL
9,O=C(c1ccsc1)N1CCCC(Nc2ccc(F)c(F)c2)C1 (stereo not given),44.5 µg/mL
10,Cc1cc(C)c(S(=O)(=O)NCc2cccs2)cc1C,36.5 µg/mL
11,CCCCC(=O)N(CCOC)c1nnc(-c2cccnc2)s1,> 48.1 µg/mL
12,O=C(NCCc1nnc2ccccn12)c1cccs1,> 40.8 µg/mL
13,O=C(Nc1ccc(S(=O)(=O)N2CCCC2)cc1)C1CCCCC1,13.7 µg/mL
14,O=C(Cc1c(Cl)cccc1Cl)OCC(=O)N1CCOCC1,> 49.8 µg/mL
15,Cc1nc(NC(=O)c2c(-c3ccccc3Cl)noc2C)sc1C,13 µg/mL
16,CCc1nc2ccccc2c(C(=O)OCC(=O)NC2CCCC2)c1C,48.5 µg/mL
17,CC(C)[C@@H](N)C(=O)N/N=C/c1ccc2nccnc2c1.Cl,> 46.2 µg/mL
18,Cc1ccc(C)c(-c2csc(NC(=O)c3c(C)noc3C)n2)c1,2.1 µg/mL
19,CCc1ccc(NS(=O)(=O)c2cccc3nsnc23)cc1,40.5 µg/mL
20,Cc1ccc(C(=O)C(C)OC(=O)Cc2c[nH]c3ccccc23)cc1 (stereo not given),7.2 µg/mL

row,Structure (SMILES),solubility kinetic
1,CC(=O)N(C)c1ccc(NS(=O)(=O)c2cccc3nsnc23)cc1,> 54.4 µg/mL
2,COc1ccccc1OCc1csc(N)n1,> 35.4 µg/mL
3,COc1ccc(C(=O)NCC(=O)OCc2ccccc2F)cc1,47.6 µg/mL
4,Cc1c(Cl)cccc1NC(=O)CSc1nccn1C,> 44.4 µg/mL
5,CN(C)c1nc(-c2ccccc2)ns1,12.5 µg/mL
6,O=C(O)c1ccc(NCc2cccs2)cc1,> 35 µg/mL
7,CC(C(=O)NC1CCCC1)N1C(=O)c2cccc3cccc1c23 (stereo not given),> 46.3 µg/mL
8,Cc1onc(-c2ccccc2)c1C(=O)Nc1cccc(S(=O)(=O)N2CCCCC2)c1,2.5 µg/mL
9,C=CCNc1nnc(Sc2ncccc2[N+](=O)[O-])s1,> 44.3 µg/mL
10,O=C1NC(=O)C(Cc2c[nH]c3ccccc23)N1 (stereo not given),> 34.4 µg/mL
11,Nc1nc(-c2nonc2N)no1,> 25.2 µg/mL
12,CCOC(=O)N1CCN(C(=O)COc2cccc3c2CCN(CC)C3=O)CC1,44.5 µg/mL
13,Cc1ccc(S(=O)(=O)N2CCOCC2)cc1NC(=O)CNC(C)c1ccccc1.O=C(O)C(=O)O (stereo not given),74.1 µg/mL
14,Cc1ccc(NC(=O)N2CCCC2c2cccs2)cc1 (stereo not given),> 43 µg/mL
15,CCCN(CC(=O)Nc1cc(Cl)ccc1Cl)C(=O)c1ccccn1,> 54.9 µg/mL
16,Cc1ccc(C(=O)N2CC=C(c3ccccc3)CC2)s1,3.1 µg/mL
17,O=C(NCc1cccc(Cl)c1)C1CCCO1 (stereo not given),31.3 µg/mL
18,CC(CCc1ccccc1)NC(=O)CNc1cccc([N+](=O)[O-])c1 (stereo not given),> 49.1 µg/mL
19,CCn1c(SCC(=O)NC(C)(C)C)nnc1-c1ccncc1,> 47.9 µg/mL
20,CCCN(CCC)CC(C)(C)NS(=O)(=O)c1ccc(Cl)cc1,39.6 µg/mL

row,Structure (SMILES),solubility kinetic
1,NC(=O)/C(=C\c1cccnc1)NC(=O)c1ccccc1,> 40.1 µg/mL
2,Cc1ccccc1OCC(O)CNC1CCCC1.Cl (stereo not given),38.2 µg/mL
3,Br.O=C(Cn1c(NCCO)nc2ccccc21)c1ccc(F)cc1,22.4 µg/mL
4,CCOc1ccc(S(=O)(=O)NCCC(=O)N2CCC(Cc3ccccc3)CC2)cc1,12.8 µg/mL
5,Cc1cc(OCC(=O)N(C(C)C)C(C)C)ccc1Cl,28.8 µg/mL
6,COC(=O)c1ccc(C2C(C#N)=C(N)Oc3cc(O)ccc32)cc1 (stereo not given),46.3 µg/mL
7,COc1c(C)cc(S(=O)(=O)NCCN2CCOCC2)c(C)c1C,46.4 µg/mL
8,CS(=O)(=O)N1CCCC(C(=O)c2cccc(Cl)c2)C1 (stereo not given),> 45.3 µg/mL
9,CC1CCN(C(=O)CNC(=O)Cc2ccccc2)CC1,40.9 µg/mL
10,COc1cc(OC)nc(Oc2cc(C=O)ccc2OC)n1,> 43.5 µg/mL
11,CC(=O)Nc1ccc(-c2csc(NCc3ccccc3)n2)cc1,33.9 µg/mL
12,COc1ccc(C(=O)N=c2sccn2C)cc1,36.1 µg/mL
13,CC1=Nc2cccc([N+](=O)[O-])c2NC(=O)C1,> 32.9 µg/mL
14,CC(NC(=O)C(=O)Nc1nccs1)c1ccccc1 (stereo not given),35.4 µg/mL
15,Cn1cccc1C(=O)OCC(=O)NCCc1ccccc1,> 42.9 µg/mL
16,Cc1nc(NC(=O)COC(=O)CNC(=O)c2ccco2)c(Cl)cc1Cl,> 57.9 µg/mL
17,CC(=O)N1c2ccccc2C2(C)C(C1(C)C)C2(Cl)Cl (stereo not given),6.1 µg/mL
18,COC(=O)c1ccccc1S(=O)(=O)N1CCn2cccc2C1C (stereo not given),43.2 µg/mL
19,Cc1ccc(-c2cn(-c3ccccc3)c(=S)[nH]2)cc1C,16.6 µg/mL
20,CC(=O)N(Cc1ccccc1)c1ccccc1C(=O)O,> 40.4 µg/mL
